Laboratory results taken from ChEMBL document CHEMBL1201862, “PubChem BioAssay data set” (2004).
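Dose response: 5 concentrations. Exposure: 48 h. Format: 96-well plates. Endpoint: linear interpolation; highest concentration if not reached. At the GI50, growth is halved.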 Calls of active or inactive are those of the source. Rule as the data show it: active = GI50 up to about 1.1 µM and inactive = higher.

Assays:
Experiment in all cases: NCI anticancer screen, dose series, 48 h
786-0 = tested on: 786-0
HT-29 = tested on: HT-29
K562 = tested on: K562
A498 = tested on: A498
DU-145 = tested on: DU-145
SN12C = tested on: SN12C
SNB-75 = tested on: SNB-75
CAKI-1 = tested on: CAKI-1
SK-OV-3 = tested on: SK-OV-3
HCC 2998 = tested on: HCC 2998
BT-549 = tested on: BT-549
MDA-MB-231 = tested on: MDA-MB-231
Hs-578T = tested on: Hs-578T
HCT-116 = tested on: HCT-116
OVCAR-5 = tested on: OVCAR-5
U-251 = tested on: U-251
LOX IMVI = tested on: LOX IMVI
MOLT-4 = tested on: MOLT-4
SNB-19 = tested on: SNB-19
OVCAR-4 = tested on: OVCAR-4
NCI/ADR-RES = tested on: NCI/ADR-RES
PC-3 = tested on: PC-3
MDA-MB-435 = tested on: MDA-MB-435
RPMI-8226 = tested on: RPMI-8226
ACHN = tested on: ACHN
HL-60 = tested on: HL-60
OVCAR-8 = tested on: OVCAR-8
SK-MEL-5 = tested on: SK-MEL-5
Malme-3M = tested on: Malme-3M
UACC-257 = tested on: UACC-257
T47D = tested on: T47D
KM12 = tested on: KM12
SR = tested on: SR
IGROV-1 = tested on: IGROV-1
NCI-H226 = tested on: NCI-H226
MDA-N = tested on: MDA-N
SF-268 = tested on: SF-268
MCF7 = tested on: MCF7
HCT-15 = tested on: HCT-15
SK-MEL-2 = tested on: SK-MEL-2
NCI-H522 = tested on: NCI-H522
SK-MEL-28 = tested on: SK-MEL-28
CCRF-CEM = tested on: CCRF-CEM
SF-539 = tested on: SF-539
RXF 393 = tested on: RXF 393
HOP-92 = tested on: HOP-92
UACC-62 = tested on: UACC-62
COLO 205 = tested on: COLO 205
TK-10 = tested on: TK-10
UO-31 = tested on: UO-31
SW-620 = tested on: SW-620
SF-295 = tested on: SF-295
HOP-62 = tested on: HOP-62
A549 = tested on: A549
OVCAR-3 = tested on: OVCAR-3
NCI-H460 = tested on: NCI-H460
NCI-H23 = tested on: NCI-H23
EKVX = tested on: EKVX
M14 = tested on: M14

## COc1cccc(C2c3cc4c(cc3OC(N3CCCC3)C2C)OCO4)c1O (configuration not stated)
786-0
  GI50: 4.89 µM (inactive)
HT-29
  GI50: 3.32 µM (inactive)
K562
  GI50: 3.74 µM (inactive)
A498
  GI50: 4.89 µM (inactive)
DU-145
  GI50: 4.41 µM (inactive)
SN12C
  GI50: 4.84 µM (inactive)
SNB-75
  GI50: 2.4 µM (inactive)
CAKI-1
  GI50: 6.32 µM (inactive)
SK-OV-3
  GI50: 4.36 µM (inactive)
HCC 2998
  GI50: 12.2 µM (inactive)
BT-549
  GI50: 3.79 µM (inactive)
MDA-MB-231
  GI50: 8.02 µM (inactive)
Hs-578T
  GI50: 3.04 µM (inactive)
HCT-116
  GI50: 4.61 µM (inactive)
OVCAR-5
  GI50: 11.3 µM (inactive)
U-251
  GI50: 3.49 µM (inactive)
LOX IMVI
  GI50: 5.56 µM (inactive)
MOLT-4
  GI50: 6.7 µM (inactive)
SNB-19
  GI50: 7.6 µM (inactive)
OVCAR-4
  GI50: 9.35 µM (inactive)
NCI/ADR-RES
  GI50: 3.7 µM (inactive)
PC-3
  GI50: 4.49 µM (inactive)
MDA-MB-435
  GI50: 1.64 µM (inactive)
RPMI-8226
  GI50: 4.23 µM (inactive)
ACHN
  GI50: 6.59 µM (inactive)
HL-60
  GI50: 11.3 µM (inactive)
OVCAR-8
  GI50: 7.55 µM (inactive)
SK-MEL-5
  GI50: 3.38 µM (inactive)
Malme-3M
  GI50: 6.17 µM (inactive)
UACC-257
  GI50: 4.41 µM (inactive)
T47D
  GI50: 9.95 µM (inactive)
KM12
  GI50: 3.03 µM (inactive)
SR
  GI50: 4.38 µM (inactive)
IGROV-1
  GI50: 7.14 µM (inactive)
NCI-H226
  GI50: 4.53 µM (inactive)
MDA-N
  GI50: 1.64 µM (inactive)
SF-268
  GI50: 5.97 µM (inactive)
MCF7
  GI50: 6.68 µM (inactive)
HCT-15
  GI50: 3.72 µM
SK-MEL-2
  GI50: 4.14 µM (inactive)
NCI-H522
  GI50: 4.44 µM (inactive)
SK-MEL-28
  GI50: 6.5 µM (inactive)
CCRF-CEM
  GI50: 4.69 µM (inactive)
SF-539
  GI50: 3.03 µM (inactive)
RXF 393
  GI50: 3.58 µM (inactive)
HOP-92
  GI50: 7.82 µM (inactive)
UACC-62
  GI50: 4.33 µM (inactive)
COLO 205
  GI50: 3.37 µM (inactive)
TK-10
  GI50: 3.99 µM (inactive)
UO-31
  GI50: 8.26 µM (inactive)
SW-620
  GI50: 3.74 µM (inactive)
SF-295
  GI50: 3.51 µM (inactive)
HOP-62
  GI50: 7.52 µM (inactive)
A549
  GI50: 5.83 µM (inactive)
OVCAR-3
  GI50: 2.77 µM (inactive)
NCI-H460
  GI50: 4.6 µM (inactive)
NCI-H23
  GI50: 4.08 µM (inactive)
EKVX
  GI50: 9.68 µM (inactive)
M14
  GI50: 3.18 µM (inactive)

## Clc1cc(OCc2nn3c(Cc4ccccc4)nnc3s2)c(Cl)cc1OCc1nn2c(Cc3ccccc3)nnc2s1
786-0
  GI50: 33.7 µM (inactive)
HT-29
  GI50: 76.6 µM (inactive)
K562
  GI50: 4.93 µM (inactive)
A498
  GI50: 30.5 µM (inactive)
DU-145
  GI50: 47.1 µM (inactive)
SN12C
  GI50: > 100 µM (inactive)
SNB-75
  GI50: 1.32 µM (inactive)
CAKI-1
  GI50: > 100 µM (inactive)
SK-OV-3
  GI50: 25.8 µM (inactive)
HCC 2998
  GI50: > 100 µM (inactive)
BT-549
  GI50: 20.8 µM (inactive)
MDA-MB-231
  GI50: 26.4 µM (inactive)
Hs-578T
  GI50: 42.4 µM (inactive)
HCT-116
  GI50: 77.1 µM (inactive)
OVCAR-5
  GI50: > 100 µM (inactive)
U-251
  GI50: 31.6 µM (inactive)
LOX IMVI
  GI50: > 100 µM (inactive)
MOLT-4
  GI50: 3.77 µM (inactive)
SNB-19
  GI50: 27.9 µM (inactive)
OVCAR-4
  GI50: 50 µM (inactive)
NCI/ADR-RES
  GI50: 16 µM (inactive)
PC-3
  GI50: 78.3 µM (inactive)
MDA-MB-435
  GI50: > 100 µM (inactive)
RPMI-8226
  GI50: 8.89 µM (inactive)
ACHN
  GI50: 59 µM (inactive)
HL-60
  GI50: 68.1 µM (inactive)
OVCAR-8
  GI50: 28.6 µM (inactive)
SK-MEL-5
  GI50: 41.8 µM (inactive)
Malme-3M
  GI50: > 100 µM (inactive)
UACC-257
  GI50: > 100 µM (inactive)
T47D
  GI50: 22.1 µM (inactive)
KM12
  GI50: > 100 µM (inactive)
SR
  GI50: 0.541 µM (active)
IGROV-1
  GI50: 36 µM (inactive)
NCI-H226
  GI50: > 100 µM (inactive)
MDA-N
  GI50: 79.4 µM (inactive)
SF-268
  GI50: 43.8 µM (inactive)
MCF7
  GI50: > 100 µM (inactive)
HCT-15
  GI50: 7.05 µM
SK-MEL-2
  GI50: > 100 µM (inactive)
NCI-H522
  GI50: > 100 µM (inactive)
SK-MEL-28
  GI50: > 100 µM (inactive)
CCRF-CEM
  GI50: 12.3 µM (inactive)
SF-539
  GI50: 42.2 µM (inactive)
RXF 393
  GI50: 17 µM (inactive)
HOP-92
  GI50: 18.8 µM (inactive)
UACC-62
  GI50: > 100 µM (inactive)
COLO 205
  GI50: > 100 µM (inactive)
TK-10
  GI50: 29.9 µM (inactive)
UO-31
  GI50: 47.8 µM (inactive)
SW-620
  GI50: > 100 µM (inactive)
SF-295
  GI50: 31.3 µM (inactive)
HOP-62
  GI50: 33.3 µM (inactive)
A549
  GI50: 94.8 µM (inactive)
OVCAR-3
  GI50: 33.3 µM (inactive)
NCI-H460
  GI50: > 100 µM (inactive)
NCI-H23
  GI50: 23.9 µM (inactive)
EKVX
  GI50: 54.1 µM (inactive)
M14
  GI50: > 100 µM (inactive)

## COc1cc(C2S/C(=C/c3ccccc3)C(=O)N2c2cc(Cl)c(Cl)cc2Cl)cc(OC)c1OC (configuration not stated)
786-0
  GI50: 38.3 µM (inactive)
HT-29
  GI50: 46.2 µM (inactive)
K562
  GI50: 29 µM (inactive)
A498
  GI50: 44.8 µM (inactive)
DU-145
  GI50: 30.2 µM (inactive)
SN12C
  GI50: > 59.8 µM (inactive)
SNB-75
  GI50: 2.56 µM (inactive)
CAKI-1
  GI50: > 40.8 µM (inactive)
SK-OV-3
  GI50: > 70.5 µM (inactive)
HCC 2998
  GI50: 39.1 µM (inactive)
BT-549
  GI50: 23.7 µM (inactive)
MDA-MB-231
  GI50: > 66.8 µM (inactive)
Hs-578T
  GI50: 9.27 µM (inactive)
HCT-116
  GI50: 23.5 µM (inactive)
OVCAR-5
  GI50: 41.4 µM (inactive)
U-251
  GI50: 44.4 µM (inactive)
LOX IMVI
  GI50: 24.2 µM (inactive)
MOLT-4
  GI50: 25.2 µM (inactive)
SNB-19
  GI50: > 63.1 µM (inactive)
OVCAR-4
  GI50: 52.6 µM (inactive)
NCI/ADR-RES
  GI50: 30.6 µM (inactive)
PC-3
  GI50: 26.8 µM (inactive)
MDA-MB-435
  GI50: 34 µM (inactive)
RPMI-8226
  GI50: 24.6 µM (inactive)
ACHN
  GI50: 35.6 µM (inactive)
HL-60
  GI50: 20.4 µM (inactive)
OVCAR-8
  GI50: 40 µM (inactive)
SK-MEL-5
  GI50: 22.5 µM (inactive)
Malme-3M
  GI50: 26.2 µM (inactive)
UACC-257
  GI50: 54.5 µM (inactive)
T47D
  GI50: > 50.8 µM (inactive)
KM12
  GI50: 25.7 µM (inactive)
SR
  GI50: 25.3 µM (inactive)
IGROV-1
  GI50: 23.9 µM (inactive)
NCI-H226
  GI50: 20.6 µM (inactive)
MDA-N
  GI50: 50.5 µM (inactive)
SF-268
  GI50: 29.6 µM (inactive)
MCF7
  GI50: 30.4 µM (inactive)
HCT-15
  GI50: 28.7 µM
SK-MEL-2
  GI50: 41.3 µM (inactive)
NCI-H522
  GI50: 16.9 µM (inactive)
SK-MEL-28
  GI50: > 64 µM (inactive)
CCRF-CEM
  GI50: 21.5 µM (inactive)
SF-539
  GI50: 25.6 µM (inactive)
RXF 393
  GI50: > 100 µM (inactive)
HOP-92
  GI50: 13.7 µM (inactive)
UACC-62
  GI50: 27.5 µM (inactive)
COLO 205
  GI50: 53.6 µM (inactive)
TK-10
  GI50: > 69.3 µM (inactive)
UO-31
  GI50: 26.7 µM (inactive)
SW-620
  GI50: 47.6 µM (inactive)
SF-295
  GI50: 49.3 µM (inactive)
HOP-62
  GI50: 28.4 µM (inactive)
A549
  GI50: 35.6 µM (inactive)
OVCAR-3
  GI50: 24.2 µM (inactive)
NCI-H460
  GI50: 31.5 µM (inactive)
NCI-H23
  GI50: 43.2 µM (inactive)
EKVX
  GI50: 9.66 µM (inactive)
M14
  GI50: 37.5 µM (inactive)
